The values that follow come from patent US6864286B2, “Inhibitors of the EGF-receptor tyrosine kinase and methods for their use” (Parker Hughes Institute, priority 1998, dated 2005).

Bounds are passed on as bounds.

Assay [1] deals with MDA-MB-361 cells. As to the kind of experiment: MTT cytotoxicity assay, MDA-MB-361. Type of assay: cell-based. As to conditions: Homo sapiens, 36 hours, read-out: Cancer Cell Cytotoxicity IC50 MDA-MB-361. The procedure: (§1) In order to determine the cytotoxic activity of LFM and its analogs against breast cancer cells, cells in alpha-MEM supplemented with 10% (v/v) fetal calf serum were treated with various concentrations of the compounds for 24 hours at 37° C., washed twice in alpha-MEM, and then used in either MTT assays or in vitro invasion assays, as described hereinafter.
(§2) The cytotoxicity of various compounds against human breast cancer cell lines was analyzed using the MTT (3-[4,5-dimethylthiazol-2-yl]-2,5-diphenyl tetrazolium bromide) assay (Boehringer Mannheim Corp., Indianapolis, Ind.). Uckun F. M., et al. Clin. Cancer Res. 1998, 4, 901-912. Exponentially growing breast cancer cells were seeded into a 96-well plate at a density of 2.5×10^4 cells/well and incubated for 36 hours at 37° C. prior to drug exposure. On the day of treatment, culture medium was carefully aspirated from the wells and replaced with fresh medium containing the LFM analogs at concentrations ranging from 2 to 250 μM. Triplicate wells were used for each treatment. The cells were incubated with the various compounds for 36 hours at 37° C. in a humidified 5% CO2 atmosphere. To each well, 10 μl of MTT (0.5 mg/ml final concentration) was added and the plates were incubated at 37° C. for 4 hours to allow MTT to form formazan crystals by reacting with metabolically active cells. The formazan crystals were solubilized overnight at 37° C. in a solution containing 10% SDS in 0.01 M HCl. The absorbence of each well was measured in a microplate reader (Labsystems) at 540 nm and a reference wavelength of 690 nm.
(§3) To translate the absorbance A540 values into the number of live cells in each well, the A540 values were compared to those on standard A540-versus-cell number curves generated for each cell line. The percent survival was calculated using the formula: % survival=Live cell number[test]/Live cell number [control]×100. The IC50 values were calculated by non-linear regression analysis using an Graphpad Prism software version 2.0 (Graphpad Software, Inc., San Diego, Calif.).

Assay [2] deals with T1, EGFR tyrosine kinase (Homo sapiens, UniProt P00533).
T1 construct: anti-EGFR immunoprecipitates from lysates of MDA-MB-231 human breast cancer cells; endogenous in cells; host or cells: MDA-MB-231 (ATCC HTB-26)
As to the kind of experiment: Cell-free EGFR immune complex kinase assay. Type of assay: biochemical. Particulars: EGFR immunoprecipitated from MDA-MB-231 lysates, 1 hour incubation, read-out: EGFR Inhibition IC50. The procedure: For EGFR immune complex kinase assays, 24-hours after treatment with leflunomide analogs, MDA-MB-231 breast cancer cells were stimulated with 20 ng/mL EGF for 5 minutes, lysed in 1% Nonidet-P-40 buffer, and cell lysates were immunoprecipitated with an anti-EGFR antibody reactive with the sequence Ala^351-Asp^364 of the human EGFR (Upstate Biotechnology Inc. [UBI] Catalog # 05-104) (Uckun, F. M., et al. Clin. Can. Res. 1998, 4, 901). EGFR immune complexes were examined for tyrosine phosphorylation by Western blot analysis, as described by Uckun, F. M., et al. Clin. Can. Res. 1998, 4, 901. All anti-phosphotyrosine Western blots were subjected to densitometric scanning using the automated AMBIS system (Automated Microbiology System, Inc., San Diego, Calif.) and for each time point a % inhibition value was determined by comparing the density ratios of the tyrosine phosphorylated EGFR protein bands to those of the baseline sample and using the formula: % Inhibition=100−100×[Density of tyrosine phosphorylated EGFR band]test sample/[Density of tyrosine phosphorylated EGFR band]baseline control sample. The IC50 values were determined using an Inplot program (Graphpad Software, Inc., San Diego, Calif.).
In other experiments, MDA-MB-231 cells were stimulated with 10 ng/ml EGF prior to immunoprecipitation of the EGFR. EGFR immune complexes were incubated for 1 hour at room temperature with various LFM analogs and tyrosine kinase assays were performed in the presence of [γ-^32P]-ATP, as previously described (Uckun, F. M., et al. Clin. Can. Res. 1998, 4, 901; Narla, R. K., et al. Clin. Can. Res 1998, 1405; Uckun, F. M., et al. Science 1996, 22, 1096; Uckun, F. M., et al. Science 1995, 267, 886). The kinase assay gels were analyzed both by autoradiography and using the BioRad Storage Phosphor Imager System (BioRad, Hercules, Calif.) for quantitative scanning.

The test system of assay [3] is MDA-MB-231 cells. As to the kind of experiment: MTT cytotoxicity assay, MDA-MB-231. Format: cell-based. Particulars: Homo sapiens, 36 hours, read-out: Cancer Cell Cytotoxicity IC50 MDA-MB-231. Here is the method:
as §1, §2, §3

The subject of assay [4] is MDA-MB-231 cells. As to the kind of experiment: Confocal laser scanning microscopy of treated cells. Format: cell-based, human. As to conditions: MDA-MB-231, 100 μM, 24 hours, α-tubulin / TOTO-3 staining. Here is the method:
Immunofluorescence was used to examine the morphologic features of breast cancer cells treated with LFM and its analogs. Before the experiment, cells were trypsinized from rapidly growing tissue culture flasks and seeded onto sterile 22 mm^2 coverslips in 6-well culture plates. Cells on coverslips were returned to the incubator for 24 hours prior to treatment. The following day, drugs were added from a stock solution made in DMSO to a final concentration of 100 μM. Final DMSO concentration was 0.1% in both test samples and controls. Cells were returned to a 37° C. incubator for 24 hours before further processing.
At 24 hours, coverslips were fixed in −20° C. methanol for 15 minutes followed by a 15 minute incubation in phosphate buffered saline +0.1% Triton X-100(PBS-Tx). Coverslips were next incubated with a monoclonal antibody against α-tubulin (Sigma Chemical Co, St. Louis, Mo.) at a dilution of 1:1000 for 40 minutes in a humidified chamber at 37° C. Coverslips were washed for 15 minutes in PBS-Tx followed by a 40 min incubation with a goat anti-mouse IgG antibody conjugated to FITC (Amersham Corp., Arlington Heights, Ill.). The coverslips were again rinsed in PBS-Tx and incubated with 5 μM TOTO-3 (Molecular Probes, Eugene Oreg.) for 20 minutes to label the nuclear DNA. […]

T1 sequence (P00533 25-1210): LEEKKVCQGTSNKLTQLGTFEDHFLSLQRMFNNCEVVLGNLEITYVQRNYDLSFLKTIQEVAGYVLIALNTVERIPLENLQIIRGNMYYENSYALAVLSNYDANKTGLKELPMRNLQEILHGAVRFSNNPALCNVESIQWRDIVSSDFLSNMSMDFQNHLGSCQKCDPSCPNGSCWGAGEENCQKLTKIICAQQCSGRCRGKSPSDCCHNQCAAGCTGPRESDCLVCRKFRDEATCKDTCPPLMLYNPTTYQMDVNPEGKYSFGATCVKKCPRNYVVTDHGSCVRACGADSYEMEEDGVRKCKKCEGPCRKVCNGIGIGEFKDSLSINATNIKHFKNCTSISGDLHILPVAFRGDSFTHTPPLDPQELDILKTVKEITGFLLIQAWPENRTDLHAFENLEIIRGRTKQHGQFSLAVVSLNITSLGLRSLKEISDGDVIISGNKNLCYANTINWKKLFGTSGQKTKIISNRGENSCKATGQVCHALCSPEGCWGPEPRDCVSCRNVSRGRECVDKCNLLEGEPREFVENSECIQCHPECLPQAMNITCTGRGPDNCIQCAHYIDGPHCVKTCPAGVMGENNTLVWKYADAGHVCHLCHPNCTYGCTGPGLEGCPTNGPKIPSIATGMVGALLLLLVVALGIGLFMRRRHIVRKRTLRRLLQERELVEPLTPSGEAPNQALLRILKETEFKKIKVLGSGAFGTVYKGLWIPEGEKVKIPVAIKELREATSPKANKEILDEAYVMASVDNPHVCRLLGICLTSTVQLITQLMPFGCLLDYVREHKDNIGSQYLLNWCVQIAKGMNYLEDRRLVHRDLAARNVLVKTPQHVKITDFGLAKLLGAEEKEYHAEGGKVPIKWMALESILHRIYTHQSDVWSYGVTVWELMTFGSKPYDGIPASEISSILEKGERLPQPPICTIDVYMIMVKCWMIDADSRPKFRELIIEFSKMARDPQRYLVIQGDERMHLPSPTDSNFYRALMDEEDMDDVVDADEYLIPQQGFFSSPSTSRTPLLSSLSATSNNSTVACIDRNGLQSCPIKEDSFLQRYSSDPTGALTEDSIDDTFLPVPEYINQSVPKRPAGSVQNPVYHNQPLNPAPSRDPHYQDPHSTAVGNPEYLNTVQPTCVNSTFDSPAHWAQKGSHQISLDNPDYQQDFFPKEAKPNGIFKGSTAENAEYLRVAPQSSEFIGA

For `CC(O)=C(C#N)C(=O)Nc1cccc(C(F)(F)F)c1` [LFM-A8, α-Cyano-β-hydroxy-β-methyl-N-[3-(trifluoromethyl)phenyl]-propenamide], the values for the IC50 in assay [1], in assay [2] and in assay [3] were greater than 300 µM, greater than 100 µM and greater than 300 µM, respectively.
For `CC(O)=C(C#N)C(=O)Nc1ccccc1` [LFM-A14, α-Cyano-β-hydroxy-β-methyl-N-(phenyl)propenamide], the IC50 – broadly, the concentration that gives 50% inhibition – is greater than 300 µM in assay [1], greater than 100 µM in assay [2] and greater than 300 µM in assay [3].
As for `CC(O)=C(C#N)C(=O)Nc1ccccc1C(F)(F)F` [LFM-A4, α-Cyano-β-hydroxy-β-methyl-N-[2-(trifluoromethyl)phenyl]-propenamide], the half-inhibitory concentration (IC50) in assay [1] was greater than 300 µM; in assay [2] it was greater than 100 µM; in assay [3] it was greater than 300 µM.
Turning to `CC(O)=C(C#N)C(=O)Nc1cccc(Cl)c1` [LFM-A10, α-Cyano-β-hydroxy-β-methyl-N-(3-chlorophenyl)propenamide], the values for the IC50 in assay [1], in assay [2] and in assay [3] were greater than 300 µM, greater than 100 µM and greater than 300 µM, respectively.
With `CC(O)=C(C#N)C(=O)Nc1ccc(F)cc1` [LFM-A3, α-Cyano-β-hydroxy-β-methyl-N-(4-fluorophenyl)propenamide], the “morphology and microtubular organization of treated cells” value in assay [4] is given as “did not affect the morphology or microtubular organization”. Besides, the IC50 in assay [1] is greater than 300 µM; in assay [2], greater than 100 µM; in assay [3], greater than 300 µM.
Consider `CC(O)=C(C#N)C(=O)Nc1ccccc1Br` [LFM-A5, α-Cyano-β-hydroxy-β-methyl-N-(2-bromophenyl)propenamide], for which the IC50 was greater than 300 µM in assay [1], greater than 100 µM in assay [2] and greater than 300 µM in assay [3].
`CC(O)=C(C#N)C(=O)Nc1ccc(Br)cc1` [LFM-A1, α-Cyano-β-hydroxy-β-methyl-N-(4-bromophenyl)propenamide]: the half-maximal inhibitory concentration (IC50) in assay [1] was greater than 300 µM; in assay [2], greater than 100 µM; in assay [3], greater than 300 µM.
For `CC(O)=C(C#N)C(=O)Nc1ccccc1Cl` [LFM-A6, α-Cyano-β-hydroxy-β-methyl-N-(2-chlorophenyl)propenamide], the 50% inhibitory concentration (IC50) in assay [1] was greater than 300 µM; in assay [2] it was greater than 100 µM; in assay [3], greater than 300 µM.
Regarding `CC(O)=C(C#N)C(=O)Nc1cccc(F)c1` [LFM-A11, α-Cyano-β-hydroxy-β-methyl-N-(3-fluorophenyl)propenamide], the IC50 in assay [1] is greater than 300 µM; in assay [2], greater than 100 µM; in assay [3] it was greater than 300 µM.
For `CC(O)=C(C#N)C(=O)Nc1ccccc1F` [LFM-A7, α-Cyano-β-hydroxy-β-methyl-N-(2-fluorophenyl)propenamide], the 50% inhibitory concentration (IC50) in assay [1] was greater than 300 µM; in assay [2], 74.5 µM; in assay [3] it was greater than 300 µM.
Take `CC(O)=C(C#N)C(=O)Nc1cccc(Br)c1` [LFM-A9, α-Cyano-β-hydroxy-β-methyl-N-(3-bromophenyl)propenamide]: the figures for the IC50 in assay [1], in assay [2] and in assay [3] were greater than 300 µM, greater than 100 µM and greater than 300 µM, respectively.
As for `CC(O)=C(C#N)C(=O)Nc1cc(Br)ccc1Br` [LFM-A13, α-Cyano-β-hydroxy-β-methyl-N-(2,5-dibromophenyl)propenamide], the figures for the IC50 in assay [1], in assay [2] and in assay [3] were greater than 300 µM, greater than 100 µM and greater than 300 µM, respectively.
On to `CC(O)=C(C#N)C(=O)Nc1ccc(Cl)cc1` [LFM-A2, α-Cyano-β-hydroxy-β-methyl-N-(4-chlorophenyl)propenamide], for which the IC50 in assay [1] is greater than 300 µM; in assay [2], greater than 100 µM; in assay [3], greater than 300 µM.
